Where a name gives a salt, the structure may show the parent alone.
Key:
ENR+CD organoids [1] = assay: Primary screen: ATP (CellTiter-Glo 3D, CTG) cell number/viability, 2.5-D 384-well ENR+CD organoids; conditions: primary screen; for Dose.FC.CTG: FC relative to plate median; for Z.CTG: standard z score;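 on all read-outs here: compounds given at plating and again on day 3 over a 6-day differentiation from ENR+CV stem-cell-enriched precursors, ATP measured on day 6, plate median as control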
[2] = test system: ENR+CD organoids (ISC to Paneth cell differentiation); assay: Primary screen: basal (non-stimulated) lysozyme secretion LYZ.NS, 2.5-D 384-well ENR+CD organoid differentiation; type: cell-based, mouse; conditions: for primary screen hit call (SSMD and z-scored FC cutoffs in both LYZ assays): LYZ.NS and LYZ.S, 0.08-10 uM, 6 days ENR+CD; for Dose.FC.LYZ.NS: FC relative to plate median; for Z.LYZ.NS: standard z score
Excerpt: (§1) High-throughput screening.

[3] = test system: ENR+CD organoids (ISC to Paneth cell differentiation); assay: Secondary (validation) screen: LYZ.NS basal lysozyme secretion, 2.5-D 384-well ENR+CD organoids; type: cell-based, mouse; conditions: 6-day ENR+CD, vs ENR+CD+DMSO
[4] = test system: ENR+CD organoids (ISC to Paneth cell differentiation); assay: Primary screen: CCh-stimulated lysozyme secretion LYZ.S, 2.5-D 384-well ENR+CD organoid differentiation; type: cell-based, mouse; conditions: primary screen, FC relative to plate median
Excerpt: as §1

ENR+CD organoids [5] = assay: Secondary (validation) screen: ATP (CTG) assay, 2.5-D 384-well ENR+CD organoids; type: cell-based, mouse; conditions: 6-day ENR+CD, vs ENR+CD+DMSO
[6] = test system: ENR+CD organoids (ISC to Paneth cell differentiation); assay: Secondary (validation) screen: LYZ.S CCh-stimulated lysozyme secretion, 2.5-D 384-well ENR+CD organoids; type: cell-based, mouse; conditions: 6-day ENR+CD, vs ENR+CD+DMSO

For `NC(=O)c1ccc(-c2nc(-c3ccccn3)c(-c3ccc4c(c3)OCO4)[nH]2)cc1` [SB431542], the “increase of cell viability compared with LY215799” value (ENR+CD organoids [1]) was “outperformed LY215799”, the Dose.FC.CTG (ENR+CD organoids [1]; dose 0.08 uM) was 0.380 log2 fold change and the Z.CTG (ENR+CD organoids [1]; dose 0.08 uM) was 0.907. For the same compound, the Dose.FC.CTG (ENR+CD organoids [1]; dose 0.40 uM) was 0.473 log2 fold change, the Z.CTG (ENR+CD organoids [1]; dose 0.40 uM) was 1.130 and the Dose.FC.CTG (ENR+CD organoids [1]; dose 2.00 uM) was 0.316 log2 fold change. The Z.CTG (ENR+CD organoids [1]; dose 2.00 uM) was 0.754, the Dose.FC.CTG (ENR+CD organoids [1]; dose 10.00 uM) was 0.155 log2 fold change and the Z.CTG (ENR+CD organoids [1]; dose 10.00 uM) was 0.370. The “primary screen hit call (SSMD and z-scored FC cutoffs in both LYZ assays)” value [2] was “selected as a hit”, the “performance on both LYZ assays compared with LY215799” value ([2]; primary screen) was “performed almost identically to LY215799” and the Dose.FC.LYZ.NS ([2]; primary screen, dose 0.08 uM) was 0.141 log2 fold change. For the same compound, the Z.LYZ.NS ([2]; primary screen, dose 0.08 uM) was 1.225, the Dose.FC.LYZ.NS ([2]; primary screen, dose 0.40 uM) was 0.174 log2 fold change and the Z.LYZ.NS ([2]; primary screen, dose 0.40 uM) was 1.514. It also gave a Dose.FC.LYZ.NS ([2]; primary screen, dose 2.00 uM) of 0.187 log2 fold change, a Z.LYZ.NS ([2]; primary screen, dose 2.00 uM) of 1.632 and a Dose.FC.LYZ.NS ([2]; primary screen, dose 10.00 uM) of 0.040 log2 fold change. For the same compound, the Z.LYZ.NS ([2]; primary screen, dose 10.00 uM) was 0.346, the Dose.FC.LYZ.NS ([3]; 0.06 uM) was 0.089 log2 fold change and the Z.LYZ.NS ([3]; 0.06 uM) was 0.709. It also gave a repSSMD.LYZ.NS ([3]; 0.06 uM) of 1.073, a Dose.FC.LYZ.NS ([3]; 0.24 uM) of 0.105 log2 fold change and a Z.LYZ.NS ([3]; 0.24 uM) of 0.838. For the same compound, the repSSMD.LYZ.NS ([3]; 0.24 uM) was 0.830, the Dose.FC.LYZ.NS ([3]; 0.48 uM) was −0.016 log2 fold change and the Z.LYZ.NS ([3]; 0.48 uM) was −0.128. For the same compound, the repSSMD.LYZ.NS ([3]; 0.48 uM) was −0.149, the Dose.FC.LYZ.NS ([3]; […]) was 0.116 log2 fold change and the Dose.FC.LYZ.S ([4]; dose 0.08 uM) was 0.135 log2 fold change. For the same compound, the Dose.FC.LYZ.S ([4]; dose 0.40 uM) was 0.309 log2 fold change, the Dose.FC.LYZ.S ([4]; dose 2.00 uM) was 0.223 log2 fold change and the Dose.FC.LYZ.S ([4]; dose 10.00 uM) was 0.126 log2 fold change. For the same compound, the Dose.FC.CTG (ENR+CD organoids [5]; 0.06 uM) was 0.160 log2 fold change, the Z.CTG (ENR+CD organoids [5]; 0.06 uM) was 1.439 and the repSSMD.CTG (ENR+CD organoids [5]; 0.06 uM) was 0.654. For the same compound, the Dose.FC.CTG (ENR+CD organoids [5]; 0.24 uM) was 0.023 log2 fold change, the Z.CTG (ENR+CD organoids [5]; 0.24 uM) was 0.206 and the repSSMD.CTG (ENR+CD organoids [5]; 0.24 uM) was 0.141. It also gave a Dose.FC.CTG (ENR+CD organoids [5]; 0.48 uM) of 0.083 log2 fold change, a Z.CTG (ENR+CD organoids [5]; 0.48 uM) of 0.752 and a repSSMD.CTG (ENR+CD organoids [5]; 0.48 uM) of 0.527. The Dose.FC.CTG (ENR+CD organoids [5]; […]) was 0.120 log2 fold change, the Dose.FC.LYZ.S ([6]; 0.06 uM) was 0.067 log2 fold change and the Z.LYZ.S ([6]; 0.06 uM) was 0.514. For the same compound, the repSSMD.LYZ.S ([6]; 0.06 uM) was 0.855, the Dose.FC.LYZ.S ([6]; 0.24 uM) was 0.027 log2 fold change and the Z.LYZ.S ([6]; 0.24 uM) was 0.211. It also gave a repSSMD.LYZ.S ([6]; 0.24 uM) of 0.301, a Dose.FC.LYZ.S ([6]; 0.48 uM) of −0.050 log2 fold change and a Z.LYZ.S ([6]; 0.48 uM) of −0.387. The repSSMD.LYZ.S ([6]; 0.48 uM) was −0.449 and the Dose.FC.LYZ.S ([6]; […]) was 0.072 log2 fold change.

For `C[C@H](NCc1ccc(OCc2cccc(F)c2)cc1)C(N)=O` [Safinamide Mesylate, reference compound], the Dose.FC.CTG (ENR+CD organoids [1]; dose 0.08 uM) was 0.265 log2 fold change, the Dose.FC.CTG (ENR+CD organoids [1]; dose 0.40 uM) was 0.241 log2 fold change and the Dose.FC.CTG (ENR+CD organoids [1]; dose 2.00 uM) was 0.263 log2 fold change. For the same compound, the Dose.FC.CTG (ENR+CD organoids [1]; dose 10.00 uM) was 0.369 log2 fold change, the “primary screen hit call (SSMD and z-scored FC cutoffs in both LYZ assays)” value [2] was “sole hit in their respective pathway” and the Dose.FC.LYZ.NS ([2]; primary screen, dose 0.08 uM) was 0.160 log2 fold change. The Z.LYZ.NS ([2]; primary screen, dose 0.08 uM) was 1.394, the Dose.FC.LYZ.NS ([2]; primary screen, dose 0.40 uM) was 0.093 log2 fold change and the Z.LYZ.NS ([2]; primary screen, dose 0.40 uM) was 0.814. It also gave a Dose.FC.LYZ.NS ([2]; primary screen, dose 2.00 uM) of 0.174 log2 fold change, a Z.LYZ.NS ([2]; primary screen, dose 2.00 uM) of 1.518 and a Dose.FC.LYZ.NS ([2]; primary screen, dose 10.00 uM) of 0.057 log2 fold change. It also gave a Z.LYZ.NS ([2]; primary screen, dose 10.00 uM) of 0.499, a Dose.FC.LYZ.NS ([3]; 0.50 uM) of −0.156 log2 fold change and a Dose.FC.LYZ.NS ([3]; 1.00 uM) of −0.231 log2 fold change. The Dose.FC.LYZ.NS ([3]; 2.00 uM) was −0.046 log2 fold change, the Dose.FC.LYZ.NS ([3]; 4.00 uM) was −0.034 log2 fold change and the Dose.FC.LYZ.S ([4]; dose 0.08 uM) was 0.302 log2 fold change. For the same compound, the Dose.FC.LYZ.S ([4]; dose 0.40 uM) was 0.191 log2 fold change, the Dose.FC.LYZ.S ([4]; dose 2.00 uM) was 0.236 log2 fold change and the Dose.FC.LYZ.S ([4]; dose 10.00 uM) was 0.143 log2 fold change. The Dose.FC.CTG (ENR+CD organoids [5]; 0.50 uM) was −0.014 log2 fold change, the Dose.FC.CTG (ENR+CD organoids [5]; 1.00 uM) was −0.082 log2 fold change and the Dose.FC.CTG (ENR+CD organoids [5]; 2.00 uM) was −0.011 log2 fold change. For the same compound, the Dose.FC.CTG (ENR+CD organoids [5]; 4.00 uM) was −0.002 log2 fold change, the Dose.FC.LYZ.S ([6]; 0.50 uM) was −0.213 log2 fold change and the Dose.FC.LYZ.S ([6]; 1.00 uM) was −0.294 log2 fold change. It also gave a Dose.FC.LYZ.S ([6]; 2.00 uM) of −0.099 log2 fold change and a Dose.FC.LYZ.S ([6]; 4.00 uM) of −0.086 log2 fold change.
